Reference: patent US20230339937A1, “CONDENSED RING COMPOUNDS THAT INHIBIT H-PGDS” (SATO PHARMACEUTICAL CO., LTD., priority 2020, published 2023)

Target: T1, Recombinant human H-PGDS (Homo sapiens, UniProt O60760)
T1 construct: made in house; host or cells: E. coli
Assay: H-PGDS inhibitory activity (prostaglandin D2 production from prostaglandin H2, measured by LC-MS/MS)
Format: biochemical
Details: recombinant human H-PGDS 1.0 nM expressed in E. coli; prostaglandin H2 25 μM; preincubated 15 minutes on ice, reacted on ice for 1 minute; concentration that inhibits prostaglandin D2 production by 50%
Experimental: The H-PGDS inhibitory activity of each Example compound was measured according to the method reported by LIN, Jiang. et al. (NO 2007/041634).
Recombinant human H-PGDS (final concentration: 1.0 nM) expressed in E. coli was mixed in an assay buffer containing 20 mM Tris-HCl (pH 8.0), 2 mM magnesium chloride, 2 mM reduced glutathione, and 0.5 mg/mL γ-globulin, and 150 μL of the mixture was dispensed into a 8-strip PCR tube (BM Equipment Co., Ltd.). Test compounds (Example compounds) (16.5 μL) at various concentrations dissolved in DMSO were added and the mixture was preincubated for 15 minutes on ice.
Prostaglandin H2 (final concentration: 25 μM) (Cayman Chemical) was dispensed into another 8-strip PCR tube, and the solvent was dried and solidified using a vacuum concentrator (Thermo Fisher Scientific). To the dried and solidified prostaglandin H2 was added 50 μL of the assay buffer containing H-PGDS and each test compound after the preincubation, and the mixture was reacted on ice for 1 minute. 45 μL of this mixture was added to 45 μL of a stop solution (50 mM aqueous citric acid solution containing iron chloride at a final concentration of 4 mg/mL) to stop the reaction. Then, the reaction solution was deproteinized, added to a 96 square deep well plate (SHONANMARUHACHI STEC Co., Ltd.), and the prostaglandin D2 concentration in the reaction solution was measured by LC-MS/MS. ACQUITY (registered trademark) TQD (Waters) was used as a measuring instrument.
Prostaglandin Da production activity (f) in the group with each test compound when a value obtained by subtracting the amount of production of prostaglandin D2 in the group without enzyme, which is non-specific production of prostaglandin D2, from the amount of production of prostaglandin Da in the group without test compound (DMSO-addition group) in each 8-strip PCR tube is 100% was calculated.

T1 sequence (O60760 whole entry): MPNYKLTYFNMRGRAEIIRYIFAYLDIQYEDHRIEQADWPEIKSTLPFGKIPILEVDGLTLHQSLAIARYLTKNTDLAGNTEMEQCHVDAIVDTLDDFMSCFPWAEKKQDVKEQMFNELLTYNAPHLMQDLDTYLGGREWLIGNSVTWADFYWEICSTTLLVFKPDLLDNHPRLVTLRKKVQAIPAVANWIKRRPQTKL

IC50 [nM] | SMILES
2.7 | CNC(=O)c1ccc(-c2nccc3[nH]ccc23)cc1 [Example 1, N-methyl-4-(1H-pyrrolo[3,2-c]pyridin-4-yl)benzamide]
1.4 | CCCCNC(=O)c1ccc(-c2nccc3[nH]ccc23)cc1 [Example 7, N-butyl-4-(1H-pyrrolo[3,2-c]pyridin-4-yl)benzamide]
1 | O=C(NCc1ccccc1)c1ccc(-c2nccc3[nH]ccc23)cc1 [Example 8, N-benzyl-4-(1H-pyrrolo[3,2-c]pyridin-4-yl)benzamide]
1.5 | O=C(NCc1ccccn1)c1ccc(-c2nccc3[nH]ccc23)cc1 [Example 9]
1.7 | O=C(NCc1cccnc1)c1ccc(-c2nccc3[nH]ccc23)cc1 [Example 10, N-(pyridin-3-ylmethyl)-4-(1H-pyrrolo[3,2-c]pyridin-4-yl)benzamide]
1.7 | O=C(NCc1ccncc1)c1ccc(-c2nccc3[nH]ccc23)cc1 [Example 11, N-(pyridin-4-ylmethyl)-4-(1H-pyrrolo[3,2-c]pyridin-4-yl)benzamide]
1.1 | O=C(Nc1ccccc1)c1ccc(-c2nccc3[nH]ccc23)cc1 [Example 16, N-phenyl-4-(1H-pyrrolo[3,2-c]pyridin-4-yl)benzamide]
1 | O=C(NCC1CC1)c1ccc(-c2nccc3[nH]ccc23)cc1 [Example 18, N-(cyclopropyl-methyl)-4-(1H-pyrrolo[3,2-c]pyridin-4-yl)benzamide]
0.79 | COCCNC(=O)c1ccc(-c2nccc3[nH]ccc23)cc1 [Example 23, N-(2-methoxyethyl)-4-(1H-pyrrolo[3,2-c]pyridin-4-yl)benzamide]
1.7 | O=C(NCc1ccco1)c1ccc(-c2nccc3[nH]ccc23)cc1 [Example 26, N-(furan-2-ylmethyl)-4-(1H-pyrrolo[3,2-c]pyridin-4-yl)benzamide]
0.65 | O=C(NCCCO)c1ccc(-c2nccc3[nH]ccc23)cc1 [Example 30, N-(3-hydroxypropyl)-4-(1H-pyrrolo[3,2-c]pyridin-4-yl)benzamide]
1.5 | CC(O)CNC(=O)c1ccc(-c2nccc3[nH]ccc23)cc1 (stereo not drawn) [Example 31, N-(2-hydroxypropyl)-4-(1H-pyrrolo[3,2-c]pyridin-4-yl)benzamide]
1.5 | CC(C)(O)CNC(=O)c1ccc(-c2nccc3[nH]ccc23)cc1 [Example 32, N-(2-hydroxy-2-methylpropyl)-4-(1H-pyrrolo[3,2-c]pyridin-4-yl)benzamide]
1.1 | CCC(O)CNC(=O)c1ccc(-c2nccc3[nH]ccc23)cc1 (stereo not drawn) [Example 33, N-(2-hydroxybutyl)-4-(1H-pyrrolo[3,2-c]pyridin-4-yl)benzamide]
2.4 | O=C(NCC(O)CO)c1ccc(-c2nccc3[nH]ccc23)cc1 (stereo not drawn) [Example 34, N-(2,3-dihydroxypropyl)-4-(1H-pyrrolo[3,2-c]pyridin-4-yl)benzamide]

More lines, now with the values behind:

SMILES | IC50 [nM]
O=C(N[C@@H]1CCC[C@H](O)C1)c1ccc(-c2nccc3occc23)cc1 (relative stereo) [Example 265, 4-(furo[3,2-c]pyridin-4-yl)-N-(cis-3-hydroxycyclohexyl)benzamide] | 4.8
O=C(N[C@@H]1CCC[C@@H](O)C1)c1ccc(-c2nccc3occc23)cc1 (relative stereo) [Example 266, 4-(furo[3,2-c]pyridin-4-yl)-N-(trans-3-hydroxycyclohexyl)benzamide] | 3.8
O=C(N[C@@H]1CC[C@H](O)C1)c1ccc(-c2nccc3occc23)cc1 (relative stereo) [Example 267, 4-(furo[3,2-c]pyridin-4-yl)-N-(cis-3-hydroxycyclopenthyl)benzamide] | 3.1
O=C(N[C@@H]1CC[C@@H](O)C1)c1ccc(-c2nccc3occc23)cc1 (relative stereo) [Example 268, 4-(furo[3,2-c]pyridin-4-yl)-N-(trans-3-hydroxycyclopenthyl)benzamide] | 6.4
O=C(N[C@H]1CCCC[C@H]1O)c1ccc(-c2nccc3occc23)cc1 (relative stereo) [Example 273, 4-(furo[3,2-c]pyridin-4-yl)-N-(cis-2-hydroxycyclohexyl)benzamide] | 2.8
O=C(N[C@H]1CCCC[C@@H]1O)c1ccc(-c2nccc3occc23)cc1 (relative stereo) [Example 274, 4-(furo[3,2-c]pyridin-4-yl)-N-(trans-2-hydroxycyclohexyl)benzamide] | 13
CO[C@H]1CCC[C@@H](NC(=O)c2ccc(-c3nccc4occc34)cc2)C1 (relative stereo) [Example 275, 4-(furo[3,2-c]pyridin-4-yl)-N-(cis-3-methoxycyclohexyl)benzamide] | 1.8
O=C(N[C@@H]1CCC[C@H](O)CC1)c1ccc(-c2nccc3occc23)cc1 (relative stereo) [Example 293, 4-(furo[3,2-c]pyridin-4-yl)-N-(cis-4-hydroxycycloheptyl)benzamide] | 1.6
CC(C)(O)[C@H]1CC[C@H](NC(=O)c2ccc(-c3nccc4[nH]ccc34)cc2)CC1 [Example 2, N-[trans-4-(2-hydroxypropan-2-yl)cyclohexyl]-4-(1H-pyrrolo[3,2-c]pyridin-4-yl)benzamide] | 0.75
O=C(N[C@H]1CC[C@H](CO)CC1)c1ccc(-c2nccc3[nH]ccc23)cc1 [Example 3, N-[trans-4-(hydroxymethyl)cyclohexyl]-4-(1H-pyrrolo[3,2-c]pyridin-4-yl)benzamide] | 0.63
Cn1ccc2c(-c3ccc(C(=O)N[C@H]4CC[C@H](C(C)(C)O)CC4)cc3)nccc21 [Example 4, N-[trans-4-(2-hydroxypropan-2-yl)cyclohexyl]-4-(1-methyl-1H-pyrrolo[3,2-c]pyridin-4-yl)benzamide] | 7.4
O=C(NC1CCCCC1)c1ccc(-c2nccc3[nH]ccc23)cc1 [Example 5, N-cyclohexyl-4-(1H-pyrrolo[3,2-c]pyridin-4-yl)benzamide] | 1.6
CCCCCCNC(=O)c1ccc(-c2nccc3[nH]ccc23)cc1 [Example 6, N-hexyl-4-(1H-pyrrolo[3,2-c]pyridin-4-yl)benzamide] | 1.8
O=C(NC1CCCC1)c1ccc(-c2nccc3[nH]ccc23)cc1 [Example 12, N-cyclopenthyl-4-(1H-pyrrolo[3,2-c]pyridin-4-yl)benzamide] | 1.1
O=C(NC1CCC1)c1ccc(-c2nccc3[nH]ccc23)cc1 [Example 13, N-cyclobutyl-4-(1H-pyrrolo[3,2-c]pyridin-4-yl)benzamide] | 0.58
O=C(NC1CC1)c1ccc(-c2nccc3[nH]ccc23)cc1 [Example 14, N-cyclopropyl-4-(1H-pyrrolo [3,2-c]pyridin-4-yl)benzamide] | 1.4
CC(C)NC(=O)c1ccc(-c2nccc3[nH]ccc23)cc1 [Example 15, N-isopropyl-4-(1H-pyrrolo[3,2-c]pyridin-4-yl)benzamide] | 0.99
O=C(NCCCCCCO)c1ccc(-c2nccc3[nH]ccc23)cc1 [Example 17, N-(6-hydroxyhexyl)-4-(1H-pyrrolo[3,2-c]pyridin-4-yl)benzamide] | 0.85
O=C(NCC1CCCCC1)c1ccc(-c2nccc3[nH]ccc23)cc1 [Example 19, N-(cyclohexyl-methyl)-4-(1H-pyrrolo[3,2-c]pyridin-4-yl)benzamide] | 1
O=C(NCC1CCCO1)c1ccc(-c2nccc3[nH]ccc23)cc1 (stereo not drawn) [Example 20, 4-(1H-pyrrolo[3,2-c]pyridin-4-yl)-N-[(tetrahydrofuran-2-yl)methyl] benzamide] | 0.83
O=C(NCC1CCOC1)c1ccc(-c2nccc3[nH]ccc23)cc1 (stereo not drawn) [Example 21, 4-(1H-pyrrolo[3,2-c]pyridin-4-yl)-N-[(tetrahydrofuran-3-yl)methyl] benzamide] | 0.82
O=C(NCC1CCOCC1)c1ccc(-c2nccc3[nH]ccc23)cc1 [Example 22, 4-(1H-pyrrolo[3,2-c]pyridin-4-yl)-N-[(tetrahydro-2H-pyran-4-yl)methyl] benzamide] | 0.85
COCCCNC(=O)c1ccc(-c2nccc3[nH]ccc23)cc1 [Example 24, N-(3-methoxypropyl)-4-(1H-pyrrolo[3,2-c]pyridin-4-yl)benzamide] | 0.56
CC(C)N(CCNC(=O)c1ccc(-c2nccc3[nH]ccc23)cc1)C(C)C [Example 25, N-[2-(diisopropylamino)ethyl]-4-(1H-pyrrolo[3,2-c]pyridin-4-yl)benzamide] | 1.6
CCOCCNC(=O)c1ccc(-c2nccc3[nH]ccc23)cc1 [Example 27, N-(2-ethoxyethyl)-4-(1H-pyrrolo[3,2-c]pyridin-4-yl)benzamide] | 0.98
CC(=O)NCCNC(=O)c1ccc(-c2nccc3[nH]ccc23)cc1 [Example 28, N-(2-acetamidoethyl)-4-(1H-pyrrolo[3,2-c]pyridin-4-yl)benzamide] | 1.4
CC(=O)NCCCCNC(=O)c1ccc(-c2nccc3[nH]ccc23)cc1 [Example 29, N-(4-acetamidobutyl)-4-(1H-pyrrolo[3,2-c]pyridin-4-yl)benzamide] | 0.46
